Measured values: PubChem BioAssay (NCI)
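Abbreviation: GI50, concentration required for 50% inhibition of growth. TGI is the concentration that stops growth completely.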

Tests used:
Assay in all cases: NCI anticancer screen, dose series, 384-well format
IGROV1 ovarian = tested on: IGROV1 ovarian
MDA-MB-435 melanoma = tested on: MDA-MB-435 melanoma
KM12 colon = tested on: KM12 colon
HOP-62 NSCLC = tested on: HOP-62 NSCLC
NCI-H322M lung = tested on: NCI-H322M lung
RPMI-8226 leukemia = tested on: RPMI-8226 leukemia
NCI-H460 NSCLC = tested on: NCI-H460 NSCLC
HCT-116 colon = tested on: HCT-116 colon
NCI-H226 lung = tested on: NCI-H226 lung
SF-539 CNS = tested on: SF-539 CNS
MOLT-4 leukemia = tested on: MOLT-4 leukemia
SN12C renal = tested on: SN12C renal
HT29 colon = tested on: HT29 colon
HS 578T breast = tested on: HS 578T breast
CAKI-1 renal = tested on: CAKI-1 renal
MDA-MB-468 breast = tested on: MDA-MB-468 breast
EKVX NSCLC = tested on: EKVX NSCLC
HCC-2998 colon = tested on: HCC-2998 colon
LOX IMVI melanoma = tested on: LOX IMVI melanoma
786-0 renal = tested on: 786-0 renal
SF-295 CNS = tested on: SF-295 CNS
HOP-92 NSCLC = tested on: HOP-92 NSCLC
DU-145 prostate = tested on: DU-145 prostate
HL-60(TB) leukemia = tested on: HL-60(TB) leukemia
UACC-62 melanoma = tested on: UACC-62 melanoma
MCF7 breast = tested on: MCF7 breast
A498 renal = tested on: A498 renal
OVCAR-4 ovarian = tested on: OVCAR-4 ovarian
NCI-H522 lung = tested on: NCI-H522 lung
SK-MEL-5 melanoma = tested on: SK-MEL-5 melanoma
M14 melanoma = tested on: M14 melanoma
A549 NSCLC = tested on: A549 NSCLC
SNB-19 CNS = tested on: SNB-19 CNS
ACHN renal = tested on: ACHN renal
COLO 205 colon = tested on: COLO 205 colon
RXF 393 renal = tested on: RXF 393 renal
SK-OV-3 ovarian = tested on: SK-OV-3 ovarian
SW-620 colon = tested on: SW-620 colon
UO-31 renal = tested on: UO-31 renal
SF-268 CNS = tested on: SF-268 CNS
TK-10 renal = tested on: TK-10 renal
SR leukemia = tested on: SR leukemia
BT-549 breast = tested on: BT-549 breast
K-562 leukemia = tested on: K-562 leukemia
T-47D breast = tested on: T-47D breast
PC-3 prostate = tested on: PC-3 prostate
NCI/ADR-RES ovarian = tested on: NCI/ADR-RES ovarian
OVCAR-3 ovarian = tested on: OVCAR-3 ovarian
HCT-15 colon = tested on: HCT-15 colon
MDA-MB-231 breast = tested on: MDA-MB-231 breast
UACC-257 melanoma = tested on: UACC-257 melanoma
SK-MEL-28 melanoma = tested on: SK-MEL-28 melanoma
SNB-75 CNS = tested on: SNB-75 CNS
U251 glioblastoma = tested on: U251 glioblastoma
OVCAR-8 ovarian = tested on: OVCAR-8 ovarian
CCRF-CEM leukemia = tested on: CCRF-CEM leukemia
NCI-H23 lung = tested on: NCI-H23 lung
MALME-3M melanoma = tested on: MALME-3M melanoma

How did the GI50 (IGROV1 ovarian) turn out when `CCCN(CCC)C(=O)C1=Cc2ccc(-c3ccc(C(=O)N4CCCC4)cc3)cc2N=C(N)C1` was run?
The GI50 was 10 µM.

And the TGI (IGROV1 ovarian)?
Its TGI is 23.4 µM.

What about the GI50 (MDA-MB-435 melanoma) of the same molecule?
Its GI50 is 2.2 µM.

And the TGI (MDA-MB-435 melanoma)?
The TGI was 5.73 µM.

What about the GI50 (KM12 colon) of the same molecule?
The GI50 was 2.81 µM.

And the TGI (KM12 colon)?
Its TGI is 11.2 µM.

What about the GI50 (HOP-62 NSCLC) of the same molecule?
The GI50 was 3.07 µM.

And the TGI (HOP-62 NSCLC)?
The TGI was 11.7 µM.

And the GI50 (NCI-H322M lung)?
The GI50 was 7.93 µM.

What about the TGI (NCI-H322M lung) of the same molecule?
Its TGI is 20.6 µM.

What about the GI50 (RPMI-8226 leukemia) of the same molecule?
Its GI50 is 1.78 µM.

And the TGI (RPMI-8226 leukemia)?
The TGI was 5.78 µM.

And the GI50 (NCI-H460 NSCLC)?
The GI50 was 2.23 µM.

What about the TGI (NCI-H460 NSCLC) of the same molecule?
The TGI was 5.31 µM.

And the GI50 (HCT-116 colon)?
Its GI50 is 3.47 µM.

What about the TGI (HCT-116 colon) of the same molecule?
Its TGI is 13.1 µM.

What about the GI50 (NCI-H226 lung) of the same molecule?
Its GI50 is 10.7 µM.

And the TGI (NCI-H226 lung)?
The TGI was 23.8 µM.

What about the GI50 (SF-539 CNS) of the same molecule?
The GI50 was 3.99 µM.

And the TGI (SF-539 CNS)?
Its TGI is 16.6 µM.

And the GI50 (MOLT-4 leukemia)?
The GI50 was 2.51 µM.

And the TGI (MOLT-4 leukemia)?
The TGI was 8.74 µM.

What about the GI50 (SN12C renal) of the same molecule?
The GI50 was 13.4 µM.

What about the TGI (SN12C renal) of the same molecule?
The TGI was 29.4 µM.

And the GI50 (HT29 colon)?
The GI50 was 3.41 µM.

And the TGI (HT29 colon)?
The TGI was 11.9 µM.

And the GI50 (HS 578T breast)?
The GI50 was 3.34 µM.

And the TGI (HS 578T breast)?
The TGI was 12 µM.

And the GI50 (CAKI-1 renal)?
The GI50 was 5.86 µM.

What about the TGI (CAKI-1 renal) of the same molecule?
The TGI was 19.2 µM.

What about the GI50 (MDA-MB-468 breast) of the same molecule?
Its GI50 is 1.63 µM.

What about the TGI (MDA-MB-468 breast) of the same molecule?
Its TGI is 5.02 µM.

What about the GI50 (EKVX NSCLC) of the same molecule?
The GI50 was 3.93 µM.

And the TGI (EKVX NSCLC)?
The TGI was 16.5 µM.

What about the GI50 (HCC-2998 colon) of the same molecule?
The GI50 was 5.42 µM.

What about the TGI (HCC-2998 colon) of the same molecule?
Its TGI is 18.3 µM.

And the GI50 (LOX IMVI melanoma)?
Its GI50 is 5.71 µM.

What about the TGI (LOX IMVI melanoma) of the same molecule?
Its TGI is 18.2 µM.

And the GI50 ([…]-0 renal)?
The GI50 was 4.81 µM.

And the TGI (786-0 renal)?
Its TGI is 16.6 µM.

What about the GI50 (SF-295 CNS) of the same molecule?
Its GI50 is 3.42 µM.

What about the TGI (SF-295 CNS) of the same molecule?
Its TGI is 12.9 µM.

What about the GI50 (HOP-92 NSCLC) of the same molecule?
Its GI50 is 4 µM.

And the TGI (HOP-92 NSCLC)?
Its TGI is 15.7 µM.

And the GI50 (DU-145 prostate)?
The GI50 was 9.15 µM.

And the TGI (DU-145 prostate)?
Its TGI is 22.2 µM.

And the GI50 (HL-60(TB) leukemia)?
The GI50 was 1.52 µM.

And the TGI (HL-60(TB) leukemia)?
Its TGI is 2.86 µM.

And the GI50 (UACC-62 melanoma)?
Its GI50 is 4.59 µM.

What about the TGI (UACC-62 melanoma) of the same molecule?
Its TGI is 16.4 µM.

What about the GI50 (MCF7 breast) of the same molecule?
The GI50 was 3.11 µM.

What about the TGI (MCF7 breast) of the same molecule?
Its TGI is 12.1 µM.

What about the GI50 (A498 renal) of the same molecule?
The GI50 was 3.93 µM.

What about the TGI (A498 renal) of the same molecule?
Its TGI is 15.3 µM.

What about the GI50 (OVCAR-4 ovarian) of the same molecule?
Its GI50 is 12.4 µM.

What about the TGI (OVCAR-4 ovarian) of the same molecule?
Its TGI is 26 µM.

What about the GI50 (NCI-H522 lung) of the same molecule?
Its GI50 is 2.69 µM.

And the TGI (NCI-H522 lung)?
The TGI was 10.3 µM.

What about the GI50 (SK-MEL-5 melanoma) of the same molecule?
Its GI50 is 1.6 µM.

And the TGI (SK-MEL-5 melanoma)?
Its TGI is 3.65 µM.

What about the GI50 (M14 melanoma) of the same molecule?
The GI50 was 3.76 µM.

What about the TGI (M14 melanoma) of the same molecule?
The TGI was 13 µM.

What about the GI50 (A549 NSCLC) of the same molecule?
Its GI50 is 6.2 µM.

And the TGI (A549 NSCLC)?
Its TGI is 19.9 µM.

And the GI50 (SNB-19 CNS)?
The GI50 was 4.95 µM.

And the TGI (SNB-19 CNS)?
The TGI was 17.4 µM.

And the GI50 (ACHN renal)?
Its GI50 is 10.8 µM.

And the TGI (ACHN renal)?
Its TGI is 23.5 µM.

What about the GI50 (COLO 205 colon) of the same molecule?
The GI50 was 4.89 µM.

And the TGI (COLO 205 colon)?
The TGI was 16.9 µM.

And the GI50 (RXF 393 renal)?
The GI50 was 2.52 µM.

What about the TGI (RXF 393 renal) of the same molecule?
The TGI was 10.4 µM.

And the GI50 (SK-OV-3 ovarian)?
The GI50 was 5.22 µM.

What about the TGI (SK-OV-3 ovarian) of the same molecule?
The TGI was 17.2 µM.

And the GI50 (SW-620 colon)?
Its GI50 is 4.06 µM.

What about the TGI (SW-620 colon) of the same molecule?
The TGI was 14.6 µM.

And the GI50 (UO-31 renal)?
Its GI50 is 8.31 µM.

What about the TGI (UO-31 renal) of the same molecule?
The TGI was 21.1 µM.

And the GI50 (SF-268 CNS)?
Its GI50 is 5.11 µM.

What about the TGI (SF-268 CNS) of the same molecule?
Its TGI is 17.6 µM.

And the GI50 (TK-10 renal)?
The GI50 was 10.3 µM.

What about the TGI (TK-10 renal) of the same molecule?
Its TGI is 23.3 µM.

And the GI50 (SR leukemia)?
Its GI50 is 1.31 µM.

What about the TGI (SR leukemia) of the same molecule?
Its TGI is 3.21 µM.

What about the GI50 (BT-549 breast) of the same molecule?
Its GI50 is 4.19 µM.

And the TGI (BT-549 breast)?
Its TGI is 14.8 µM.

And the GI50 (K-562 leukemia)?
Its GI50 is 2.52 µM.

And the TGI (K-562 leukemia)?
Its TGI is 10.3 µM.

And the GI50 (T-47D breast)?
Its GI50 is 3.02 µM.

And the TGI (T-47D breast)?
Its TGI is 14.4 µM.

What about the GI50 (PC-3 prostate) of the same molecule?
The GI50 was 3.66 µM.

And the TGI (PC-3 prostate)?
The TGI was 13.9 µM.

What about the GI50 (NCI/ADR-RES ovarian) of the same molecule?
Its GI50 is 12.8 µM.

What about the TGI (NCI/ADR-RES ovarian) of the same molecule?
Its TGI is 27.9 µM.

And the GI50 (OVCAR-3 ovarian)?
The GI50 was 2.78 µM.

And the TGI (OVCAR-3 ovarian)?
Its TGI is 6.51 µM.

What about the GI50 (HCT-15 colon) of the same molecule?
Its GI50 is 3.48 µM.

What about the TGI (HCT-15 colon) of the same molecule?
Its TGI is 14.1 µM.

What about the GI50 (MDA-MB-231 breast) of the same molecule?
The GI50 was 5.09 µM.

What about the TGI (MDA-MB-231 breast) of the same molecule?
Its TGI is 17.5 µM.

And the GI50 (UACC-257 melanoma)?
The GI50 was 5.77 µM.

What about the TGI (UACC-257 melanoma) of the same molecule?
Its TGI is 18.7 µM.

What about the GI50 (SK-MEL-28 melanoma) of the same molecule?
The GI50 was 11 µM.

What about the TGI (SK-MEL-28 melanoma) of the same molecule?
Its TGI is 23 µM.

And the GI50 (SNB-75 CNS)?
The GI50 was 3.48 µM.

And the TGI (SNB-75 CNS)?
The TGI was 12.5 µM.

And the GI50 (U251 glioblastoma)?
The GI50 was 5.15 µM.

And the TGI (U251 glioblastoma)?
Its TGI is 17.4 µM.

What about the GI50 (OVCAR-8 ovarian) of the same molecule?
Its GI50 is 8.34 µM.

What about the TGI (OVCAR-8 ovarian) of the same molecule?
The TGI was 21.4 µM.

And the GI50 (CCRF-CEM leukemia)?
The GI50 was 3.53 µM.

And the TGI (CCRF-CEM leukemia)?
Its TGI is 11.2 µM.

What about the GI50 (NCI-H23 lung) of the same molecule?
Its GI50 is 3.67 µM.

What about the TGI (NCI-H23 lung) of the same molecule?
The TGI was 14.7 µM.

And the GI50 (MALME-3M melanoma)?
The GI50 was 3.81 µM.

What about the TGI (MALME-3M melanoma) of the same molecule?
Its TGI is 14.6 µM.
